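Protocol summary: plate cells (96-well), add compound at 5 concentrations, incubate 48 h, interpolate endpoints linearly. Here, GI50 denotes the concentration required for 50% inhibition of growth. TGI: concentration producing complete growth inhibition.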
Key:
Test in all cases: growth of human tumour cells (NCI), 48 h
CAKI-1 renal = test system: CAKI-1 renal
OVCAR-4 ovarian = test system: OVCAR-4 ovarian
U251 CNS = test system: U251 CNS
HT29 colon = test system: HT29 colon
SK-MEL-28 melanoma = test system: SK-MEL-28 melanoma
SK-MEL-5 melanoma = test system: SK-MEL-5 melanoma
DU-145 prostate = test system: DU-145 prostate
RPMI-8226 leukemia = test system: RPMI-8226 leukemia
T-47D breast = test system: T-47D breast
UACC-62 melanoma = test system: UACC-62 melanoma

COc1ccc(-c2cc(/C=C3\C(=O)Nc4cc(Cl)ccc43)[nH]n2)cc1 was tested, and the GI50 (CAKI-1 renal) was 1.63 µM, the TGI (CAKI-1 renal) was 21.6 µM and the GI50 (OVCAR-4 ovarian) was 6.79 µM. It also gave a TGI (OVCAR-4 ovarian) of 94.1 µM, a GI50 (U251 CNS) of 3.46 µM and a TGI (U251 CNS) of 25.8 µM. It also gave a GI50 (HT29 colon) of 3.32 µM, a TGI (HT29 colon) of 13.1 µM and a GI50 (SK-MEL-28 melanoma) of 7.45 µM. It also gave a TGI (SK-MEL-28 melanoma) greater than 100 µM, a GI50 (SK-MEL-5 melanoma) of 1.9 µM and a TGI (SK-MEL-5 melanoma) of 8.32 µM. It also gave a GI50 (DU-145 prostate) of 3.52 µM, a TGI (DU-145 prostate) of 21.4 µM and a GI50 (RPMI-8226 leukemia) of 3.3 µM. For the same molecule, the TGI (RPMI-8226 leukemia) was 40 µM, the GI50 (T-47D breast) was 6.6 µM and the TGI (T-47D breast) was greater than 100 µM. The GI50 (UACC-62 melanoma) was 2.46 µM and the TGI (UACC-62 melanoma) was greater than 100 µM.
Work on COC(=O)c1ccc2nc(-c3cc4ccccc4n3C)n(CCCCOc3cc4c(cc3OC)C(=O)N3CCC[C@H]3C=N4)c2c1 yielded a GI50 (CAKI-1 renal) of 0.953 µM, a TGI (CAKI-1 renal) of 4.85 µM and a GI50 (OVCAR-4 ovarian) of 1.54 µM. For the same molecule, the TGI (OVCAR-4 ovarian) was 11.4 µM, the GI50 (U251 CNS) was 0.632 µM and the TGI (U251 CNS) was 2.08 µM. It also gave a GI50 (HT29 colon) of 0.929 µM, a TGI (HT29 colon) of 5.49 µM and a GI50 (SK-MEL-28 melanoma) of 0.652 µM. For the same molecule, the TGI (SK-MEL-28 melanoma) was 2.3 µM, the GI50 (SK-MEL-5 melanoma) was 1.21 µM and the TGI (SK-MEL-5 melanoma) was 2.48 µM. It also gave a GI50 (DU-145 prostate) of 0.234 µM, a TGI (DU-145 prostate) of 0.564 µM and a GI50 (RPMI-8226 leukemia) of 0.345 µM. It also gave a TGI (RPMI-8226 leukemia) greater than 100 µM, a GI50 (T-47D breast) of 0.751 µM and a TGI (T-47D breast) of 3.51 µM. The GI50 (UACC-62 melanoma) was 0.211 µM and the TGI (UACC-62 melanoma) was 0.625 µM.
CCN1CCC(CC(=O)Nc2n[nH]c3nnc(-c4cccc(F)c4F)cc23)CC1 was tested, and the GI50 (CAKI-1 renal) was greater than 25 µM, the TGI (CAKI-1 renal) was greater than 25 µM and the GI50 (OVCAR-4 ovarian) was greater than 25 µM. For the same molecule, the TGI (OVCAR-4 ovarian) was greater than 25 µM, the GI50 (U251 CNS) was 21.2 µM and the TGI (U251 CNS) was greater than 25 µM. The GI50 (HT29 colon) was 12.4 µM, the TGI (HT29 colon) was greater than 25 µM and the GI50 (SK-MEL-28 melanoma) was greater than 25 µM. For the same molecule, the TGI (SK-MEL-28 melanoma) was greater than 25 µM, the GI50 (SK-MEL-5 melanoma) was greater than 6.37 µM and the TGI (SK-MEL-5 melanoma) was greater than 25 µM. For the same molecule, the GI50 (DU-145 prostate) was greater than 25 µM, the TGI (DU-145 prostate) was greater than 25 µM and the GI50 (RPMI-8226 leukemia) was greater than 25 µM. The TGI (RPMI-8226 leukemia) was greater than 25 µM, the GI50 (T-47D breast) was greater than 25 µM and the TGI (T-47D breast) was greater than 25 µM. It also gave a GI50 (UACC-62 melanoma) greater than 25 µM and a TGI (UACC-62 melanoma) greater than 25 µM.
With CCCCCCC1N=C(N)N=C(N)N1c1cccc(Cl)c1 (stereo not given) the GI50 (CAKI-1 renal) was 21.8 µM, the TGI (CAKI-1 renal) was greater than 78.5 µM and the GI50 (OVCAR-4 ovarian) was 1.76 µM. For the same molecule, the TGI (OVCAR-4 ovarian) was 38.2 µM, the GI50 (U251 CNS) was 0.0616 µM and the TGI (U251 CNS) was 13.7 µM. It also gave a GI50 (HT29 colon) of 0.0514 µM, a TGI (HT29 colon) of 7.23 µM and a GI50 (SK-MEL-28 melanoma) of 2.34 µM. For the same molecule, the TGI (SK-MEL-28 melanoma) was 17.4 µM, the GI50 (SK-MEL-5 melanoma) was 0.474 µM and the TGI (SK-MEL-5 melanoma) was 13 µM. It also gave a GI50 (DU-145 prostate) of 0.587 µM, a TGI (DU-145 prostate) of 18 µM and a GI50 (RPMI-8226 leukemia) of 0.904 µM. For the same molecule, the TGI (RPMI-8226 leukemia) was 22 µM, the GI50 (T-47D breast) was 6.19 µM and the TGI (T-47D breast) was 23.1 µM. The GI50 (UACC-62 melanoma) was 0.527 µM and the TGI (UACC-62 melanoma) was 12.3 µM.
CNC(=O)c1nn(C)c2c1C(C)(C)Cc1cnc(Nc3cccc(N4CCN(C)CC4)c3)nc1-2 was tested, and the GI50 (CAKI-1 renal) was 0.0636 µM, the TGI (CAKI-1 renal) was 1.9 µM and the GI50 (OVCAR-4 ovarian) was 0.409 µM. For the same molecule, the TGI (OVCAR-4 ovarian) was 44.3 µM, the GI50 (U251 CNS) was 0.291 µM and the TGI (U251 CNS) was 12.8 µM. The GI50 (HT29 colon) was 0.524 µM, the TGI (HT29 colon) was greater than 35 µM and the GI50 (SK-MEL-28 melanoma) was 1.32 µM. The TGI (SK-MEL-28 melanoma) was 13.1 µM, the GI50 (SK-MEL-5 melanoma) was 0.954 µM and the TGI (SK-MEL-5 melanoma) was 5.46 µM. It also gave a GI50 (DU-145 prostate) of 0.686 µM, a TGI (DU-145 prostate) of 14 µM and a GI50 (RPMI-8226 leukemia) of 0.192 µM. It also gave a TGI (RPMI-8226 leukemia) of 1.06 µM, a GI50 (T-47D breast) of 0.59 µM and a TGI (T-47D breast) of 22.6 µM. It also gave a GI50 (UACC-62 melanoma) of 0.369 µM and a TGI (UACC-62 melanoma) of 11.6 µM.
In the case of CN1CCN(Cc2ccc(NC(=O)c3cncc(C#Cc4c(N)ncc5ccc(C#N)cc45)c3)cc2C(F)(F)F)CC1, the GI50 (CAKI-1 renal) was 0.943 µM, the TGI (CAKI-1 renal) was 1.93 µM and the GI50 (OVCAR-4 ovarian) was 0.558 µM. The TGI (OVCAR-4 ovarian) was 1.37 µM, the GI50 (U251 CNS) was 0.864 µM and the TGI (U251 CNS) was 1.67 µM. For the same molecule, the GI50 (HT29 colon) was 0.079 µM, the TGI (HT29 colon) was 1.17 µM and the GI50 (SK-MEL-28 melanoma) was 0.35 µM. For the same molecule, the TGI (SK-MEL-28 melanoma) was 1.1 µM, the GI50 (SK-MEL-5 melanoma) was 0.785 µM and the TGI (SK-MEL-5 melanoma) was 1.54 µM. For the same molecule, the GI50 (DU-145 prostate) was 0.829 µM, the TGI (DU-145 prostate) was 1.59 µM and the GI50 (RPMI-8226 leukemia) was 1.01 µM. The TGI (RPMI-8226 leukemia) was 2.47 µM, the GI50 (T-47D breast) was 1.23 µM and the TGI (T-47D breast) was 5.85 µM. For the same molecule, the GI50 (UACC-62 melanoma) was 0.668 µM and the TGI (UACC-62 melanoma) was 1.42 µM.
CCc1ccccc1NC(=O)C(C#N)C1=C(Cl)C(=O)c2ccccc2C1=O (stereo not given) was tested, and the TGI (CAKI-1 renal) was 45.6 µM, the TGI (OVCAR-4 ovarian) was 27.6 µM and the TGI (U251 CNS) was 29.8 µM. It also gave a TGI (HT29 colon) of 37.9 µM, a TGI (SK-MEL-28 melanoma) of 36.4 µM and a TGI (SK-MEL-5 melanoma) of 29.6 µM. It also gave a TGI (DU-145 prostate) of 32.2 µM, a TGI (RPMI-8226 leukemia) of 77.9 µM and a TGI (T-47D breast) of 52.4 µM. It also gave a TGI (UACC-62 melanoma) of 31.2 µM.
For CS(=O)(=O)N1CCC(n2c(=O)c(Oc3ccc(F)cc3F)cc3cnc(NC4CCOCC4)nc32)CC1, the GI50 (CAKI-1 renal) was greater than 25 µM, the TGI (CAKI-1 renal) was greater than 25 µM and the GI50 (OVCAR-4 ovarian) was greater than 25 µM. It also gave a TGI (OVCAR-4 ovarian) greater than 25 µM, a GI50 (U251 CNS) greater than 25 µM and a TGI (U251 CNS) greater than 25 µM. For the same molecule, the GI50 (HT29 colon) was greater than 25 µM, the TGI (HT29 colon) was greater than 25 µM and the GI50 (SK-MEL-28 melanoma) was greater than 25 µM. It also gave a TGI (SK-MEL-28 melanoma) greater than 25 µM, a GI50 (SK-MEL-5 melanoma) greater than 25 µM and a TGI (SK-MEL-5 melanoma) greater than 25 µM. For the same molecule, the GI50 (DU-145 prostate) was greater than 25 µM, the TGI (DU-145 prostate) was greater than 25 µM and the GI50 (RPMI-8226 leukemia) was greater than 17.5 µM. For the same molecule, the TGI (RPMI-8226 leukemia) was greater than 25 µM, the GI50 (T-47D breast) was greater than 20.8 µM and the TGI (T-47D breast) was greater than 25 µM. For the same molecule, the GI50 (UACC-62 melanoma) was greater than 25 µM and the TGI (UACC-62 melanoma) was greater than 25 µM.
In the case of COc1cc2c3c(n(CCCN4CCNCC4)c(=O)c2cc1OC)-c1cc2c(cc1C3=O)OCO2, the GI50 (CAKI-1 renal) was 0.128 µM, the TGI (CAKI-1 renal) was 2.02 µM and the GI50 (OVCAR-4 ovarian) was 4.05 µM. It also gave a TGI (OVCAR-4 ovarian) of 12.4 µM, a GI50 (U251 CNS) of 0.0892 µM and a TGI (U251 CNS) of 2.92 µM. The GI50 (HT29 colon) was 0.942 µM, the TGI (HT29 colon) was 29.8 µM and the GI50 (SK-MEL-28 melanoma) was 4.11 µM. The TGI (SK-MEL-28 melanoma) was 19.6 µM, the GI50 (SK-MEL-5 melanoma) was 1.33 µM and the TGI (SK-MEL-5 melanoma) was 10.5 µM. For the same molecule, the GI50 (DU-145 prostate) was 0.0439 µM, the TGI (DU-145 prostate) was 1.02 µM and the GI50 (RPMI-8226 leukemia) was 0.16 µM. It also gave a TGI (RPMI-8226 leukemia) of 1.63 µM, a GI50 (T-47D breast) of 2.54 µM and a TGI (T-47D breast) of 21.3 µM. It also gave a GI50 (UACC-62 melanoma) of 0.997 µM and a TGI (UACC-62 melanoma) of 7.61 µM.
For CC1CCCC(C(=O)CC2CC(=O)NC(=O)C2)C1=O (stereo not given), the TGI (CAKI-1 renal) was greater than 100 µM, the TGI (OVCAR-4 ovarian) was greater than 100 µM and the TGI (U251 CNS) was greater than 100 µM. It also gave a TGI (HT29 colon) greater than 100 µM, a TGI (SK-MEL-28 melanoma) greater than 100 µM and a TGI (SK-MEL-5 melanoma) greater than 100 µM. For the same molecule, the TGI (DU-145 prostate) was greater than 100 µM, the TGI (RPMI-8226 leukemia) was greater than 100 µM and the TGI (T-47D breast) was greater than 100 µM. It also gave a TGI (UACC-62 melanoma) greater than 100 µM.
C[C@@H](N)COc1ccc(-c2cnc3ccc(N[C@H](C)c4cccc(F)c4)nn23)cc1 was tested, and the GI50 (CAKI-1 renal) was 2.87 µM, the TGI (CAKI-1 renal) was 11 µM and the GI50 (OVCAR-4 ovarian) was 2.49 µM. For the same molecule, the TGI (OVCAR-4 ovarian) was 11.9 µM, the GI50 (U251 CNS) was 1.59 µM and the TGI (U251 CNS) was 4.18 µM. The GI50 (HT29 colon) was 1.4 µM, the TGI (HT29 colon) was 3.82 µM and the GI50 (SK-MEL-28 melanoma) was 1.64 µM. The TGI (SK-MEL-28 melanoma) was 3.07 µM, the GI50 (SK-MEL-5 melanoma) was 1.63 µM and the TGI (SK-MEL-5 melanoma) was 3.03 µM. For the same molecule, the GI50 (DU-145 prostate) was 3.01 µM, the TGI (DU-145 prostate) was 11.4 µM and the GI50 (RPMI-8226 leukemia) was 1.81 µM. The TGI (RPMI-8226 leukemia) was 5.3 µM, the GI50 (T-47D breast) was 1.5 µM and the TGI (T-47D breast) was 3.35 µM. For the same molecule, the GI50 (UACC-62 melanoma) was 1.97 µM and the TGI (UACC-62 melanoma) was 4.74 µM.

Reference: PubChem BioAssay (NCI)
